System: Xylella fastidiosa
Settings: in vivo

“MAKWKLFKKIGIGFKKAAHVGKAALTK [B-passerin]” was tested, and the PD resistance index was “higher than that of tolerant control plants” and the “resistance to X. fastidiosa conferred in transgenic grape plants” value was “significantly higher level of resistance”.

Reference: patent publication US20100138957A1 (priority 2007, published 2010)
